# Values quoted from earlier work as cited in the CATMoS acute toxicity set (Mansouri et al. 2021).
# Values joined by “and” are separate entries in the source; they are usually repeats but may differ in a detail not shown here. Equal values may be shown once.
# Experiment: rat acute oral toxicity
# Settings: in vivo
row,Compound,LD50
1,C[N+](C)(N)CCBr,3200 mg/kg
2,O=c1[nH]sc2ccccc12,1020 mg/kg
3,O=C(O)c1c(O)c(O)cc2ccccc12,24500 mg/kg
4,O=P(O)(O)OCC(Cl)(Cl)Cl,850 mg/kg and 1900 mg/kg
5,O=C(O)c1cccc(Cl)c1Cl,300 mg/kg
6,CCOP(=S)(OCC)Oc1cc(C)n(C)c(=O)c1,5.97 mg/kg
7,O=[N+]([O-])O[C@@H]1CO[C@H]2[C@@H]1OC[C@@H]2O,2010 mg/kg
8,CC=CC(=O)O,1000 mg/kg
9,CC(C)(C)c1nnc(NS(=O)(=O)c2ccccc2)s1,500 mg/kg
10,CCOP(=O)(OCC)N(SN(C)C(=O)ON=C(C)SC)C(C)C,100 mg/kg
11,CC(C)OC(=O)C(C(=O)OC(C)C)=C1SCCS1,1190 mg/kg
12,CN(C)Cc1ccccc1,265 mg/kg
13,CC(C)OC(=O)c1c[n+](C)c2n(c1=O)C(C)CCC2 (stereo not drawn),1200 mg/kg
14,O=C(O)Cc1cc(O)ccc1Nc1c(Cl)cc(O)cc1Cl,1000 mg/kg
15,CC(C(=O)O)c1ccc(C(=O)c2ccccc2)s1 (stereo not drawn),181 mg/kg
16,C=C(F)CO,130 mg/kg
17,BrC12CC3CC(CC(C3)C1)C2,8470 mg/kg
18,Cc1[nH]nc(Cl)c1[N+](=O)[O-],350 mg/kg
19,COc1ccc(C)cc1NC(C)=O,2240 mg/kg
20,N#CC=CCCC#N,380 mg/kg
21,CCCOC(=O)CCC(=O)OCCC,6490 mg/kg
22,Cc1c(Cl)c(Br)c(Cl)c2[nH]c(C(F)(F)F)nc12,18.3 mg/kg
23,CC(C)CCCCCCCCCCO,17000 mg/kg
24,O=C(CF)Nc1ccc(Br)cc1,29 mg/kg
25,CCCCP(CCCC)CCCC,750 mg/kg

row,Compound,LD50
1,C=CCCC(=O)O,470 mg/kg
2,NC(=O)c1cc2cc(CN3CCCCC3)ccc2o1,250 mg/kg
3,CCOC(=O)C(C)O (stereo not drawn),8200 mg/kg
4,CCOP(=O)(OCC)OC(=C(Cl)Cl)c1cc(Cl)cc(Cl)c1,20 mg/kg
5,FC(F)(F)c1ccc2nc(C(F)(F)F)[nH]c2c1,9.02 mg/kg
6,CC(CN1CCN(CCOCCO)CC1)CN1c2ccccc2Sc2ccc(Cl)cc21 (stereo not drawn),400 mg/kg
7,CCCCCCCOCCO,2280 mg/kg
8,CCCCCCCCCCCCN1CC(C)OC(C)C1 (stereo not drawn),3500 mg/kg
9,Cc1cc(N)n(-c2ccccc2)n1,2500 mg/kg
10,CC[N+]1(C)[C@@H]2C[C@@H](OC(=O)[C@H](CO)c3ccccc3)C[C@H]1[C@@H]1O[C@@H]12 (stereo partly drawn),2250 mg/kg
11,COC(=O)c1ccc(I)cc1S(=O)(=O)NC(=O)Nc1nc(C)nc(OC)n1,2680 mg/kg
12,CCCCC(CC)CNC(=O)CC(C)OC(=O)CCC(=O)O (stereo not drawn),12100 mg/kg
13,C=CCC1(C(C)SCCCC)C(=O)N=C(O)NC1=O (stereo not drawn),639 mg/kg
14,CC=Cc1cc(OC)c(OC)cc1OC,1010 mg/kg
15,CCCN(CCC)C(=O)CN(CC)P(=S)(OCC)OCC,2080 mg/kg
16,ClC(Cl)(Cl)c1ccc(C(Cl)(Cl)Cl)cc1,3200 mg/kg
17,Nc1ccccc1Cl,1020 mg/kg
18,CN(C)CC1CCCCC1,1230 mg/kg
19,CO[C@@H]1[C@@H](O)[C@@H](O)[C@H](O[C@@H]2C=C3CC[C@@H]4[C@H](CC[C@]5(C)[C@@H](c6ccc(=O)oc6)CC[C@]45O)[C@@]3(C)CC2)O[C@H]1C,79 mg/kg
20,COCCCOCC(C)OCCCOC(=O)c1ccccc1 (stereo not drawn),5480 mg/kg
21,Oc1cc(Cl)c(Br)cc1Cl,1350 mg/kg
22,CCOC(=O)CCC(=O)CC1(O)C2(Cl)C3(Cl)C4(Cl)C(Cl)(Cl)C5(Cl)C3(Cl)C1(Cl)C5(Cl)C42Cl (stereo not drawn),240 mg/kg
23,COc1cc(N)c(Cl)cc1C(=O)NC1CCNCC1,2550 mg/kg
24,CC1CNCC(C)O1 (stereo not drawn),2830 mg/kg
25,FC(F)(F)c1ccc(Cl)c(Cl)c1,1150 mg/kg

row,Compound,LD50
1,Cc1ccc(N=NN(C)C)cc1,395 mg/kg
2,COP(=S)(OC)SCC(=O)N1CCOCC1,190 mg/kg
3,CN1CCN(N=O)CC1,100 mg/kg
4,CC(=O)OC1c2c(ccc3ccc(=O)oc23)OC(C)(C)C1OC(=O)C=C(C)C (stereo not drawn),832 mg/kg
5,CN(C)CCCSc1ccccc1NC(=O)C=Cc1ccccc1,1500 mg/kg
6,CNC(=O)Oc1ccc(NC(=O)OC)c(C(C)C)c1,27 mg/kg
7,O=C1OCC2C1C1(Cl)C(Cl)=C(Cl)C2(Cl)C1(Cl)Cl (stereo not drawn),105 mg/kg
8,CCOP(=O)(OCC)SC(C)(C)C,127 mg/kg
9,O=C1CCc2ccccc2O1,1460 mg/kg
10,O=C(O)c1ccc(C(=O)O)c2c(C(=O)O)ccc(C(=O)O)c12,7500 mg/kg
11,[N-]=[N+]=NC1CCCCC1=NO (stereo not drawn),1120 mg/kg
12,O=CC(Br)(Br)Br,100 mg/kg
13,O=C1C(Cl)C(CCl)CN1c1cccc(C(F)(F)F)c1 (stereo not drawn),3650 mg/kg
14,COP(N)(=S)OC,410 mg/kg
15,CCN(CCCCCCOC(=O)c1ccc(OC)c(OC)c1)C1CCc2cc(OC)ccc2C1 (stereo not drawn),2830 mg/kg
16,CN(C)c1ccc(N=Nc2ccccc2)cc1,200 mg/kg
17,CCCCCCCCc1ccc(-c2ccccc2)cc1,2400 mg/kg
18,O=C1c2ccccc2C(=O)C1C(=O)C(c1ccccc1)c1ccccc1,1.5 mg/kg
19,COP(N)(=S)SC (stereo not drawn),250 mg/kg
20,CC1(C)CCC(NC(=O)[C@@H](N)CCC(=O)O)CC1,1430 mg/kg
21,CC(C)(C)c1ccc2c(c1)C(C)(C)CC2,15500 mg/kg
22,Cc1cc(Cl)ccc1OC(C)C(=O)N(C)C (stereo not drawn),800 mg/kg
23,O=C(O)CONC(=O)c1ccccc1,2500 mg/kg
